Measurements published in paper PMC7558522, “Click-Free Synthesis of a Multivalent Tricyclic Peptide as a Molecular Transporter” (Pharmaceutics, 2020).
In brackets after ≈: the same amount, converted by molar mass. Read-outs that look alike come from different tables or passages of the source. *1 amine or outer side, *2 acyl side, *3 side chain or, on linkers, in order; H or OH if unused. Where a SMILES comes first, the peptide text is derived from it. Bridges are numbered along the chain shown (N, C = ends). Roman numbers before positions name the chains, in order. Suc = O=C(CCC(=O)[*:2])[*:1]

What was measured:
E. coli (ATCC 25922) = assay: microbe, parasite or virus in culture; type: cell-based, Escherichia coli
Method: (§1) The selected strains of bacteria, MRSA (Los Angeles County (LAC) clone), E. coli (ATCC 25922), Pseudomonas aeruginosa (ATCC 27883), and Klebsiella pneumoniae (ATCC BAA 1705) were cultured according to the guidelines of the Clinical Laboratory Standards Institute (CLSI) guidelines. MIC values were determined using microbroth dilution assay. Tricyclic peptide 20 was used to evaluate antibacterial activity in comparison to positive controls, such as Meropenem for Gram-negative bacteria and c[R4W4] for Gram-positive bacteria. Bacterial strains were inoculated into LB (5 mL) and shaken in an orbital shaker at 175 rpm overnight at 37 °C. The cultured suspension was immediately diluted to get turbidity of 0.5 McFarland (1.5 × 10^8 bacterial cell CFU/mL) using normal saline. The test compounds (tricyclic peptide 20, Meropenem, and c[R4W4]) were dissolved in 5% dimethyl sulfoxide (DMSO) to generate 256 µg/mL solutions. 200 µL of tricyclic peptide 20, and controls were added to the first column of the 96 well plates, and a twofold serial dilution was performed with the addition of 100 µL of bacterial culture media to the other wells. […] Bacterial solution (100 µL) was added to all the wells and incubated statically at 37 °C overnight. The minimum concentration at which bacterial growth was not visible to eyes were reported as MICs and experiments were performed in triplicate.

[1] = tested on: Pseudomonas aeruginosa (ATCC 27883); assay: microbe, parasite or virus in culture; type: cell-based
Method: as §1

[2] = tested on: Klebsiella pneumoniae (ATCC BAA 1705); assay: microbe, parasite or virus in culture; type: cell-based
Method: as §1

MRSA (LAC Clone) = assay: microbe, parasite or virus in culture; type: cell-based, Methicillin-resistant Staphylococcus aureus
Method: as §1

MDA-MB-231 cells = type: cell-based, Human
Method: Human breast cancer (MDA-MB-231) cell line was grown on 75 cm^2 cell culture flasks with Dulbecco’s modified eagle’s medium (DMEM) medium, supplemented with 10% fetal bovine serum (FBS), and 1% penicillin-streptomycin solution (10,000 units of penicillin and 10 mg of streptomycin in 0.9% NaCl) in a humidified atmosphere of 5% CO2, 95% air at 37 °C. CellTiter 96® Aqueous (Promega, Madison, WI, USA) one solution cell proliferation assay (MTS) was utilized to evaluate MDA-MB-231 cell viability. Cells were seeded into 96-well plate (10^4 cells/100 μL) in complete media and incubated overnight at 37 °C with 5% CO2. Different concentrations (0−300 μM) of the peptide solution (10 μL) were added to wells to make the final concentrations of the peptide (0−30 μM). The cells were incubated again (37 °C, 5% CO2) for 24 h, then MTS reagent (20 μL) was added to each well followed by incubation for 2 h under the same condition. The absorbance of the resulting solution was evaluated at 490 nm using a microplate reader to detect the live cells. Cells without peptide were considered as a control. DMSO (30% v/v) was used as a positive control. The compound was used in aqueous solution. All the tests were performed in triplicate.

[3] = tested on: MRSA, Klebsiella pneumoniae, Pseudomonas aeruginosa, and E. coli; type: cell-based; conditions: range over the four strains, microbroth dilution
Method: as §1

Structure (SMILES) | MIC (E. coli (ATCC 25922); Escherichia coli, ATCC25922, microbroth dilution, incubated overnight at 37 °C, growth not visible to eyes, performed in triplicate, read-out: MIC) | MIC ([1]; Pseudomonas aeruginosa, ATCC27883, microbroth dilution, incubated overnight at 37 °C, growth not visible to eyes, performed in triplicate, read-out: MIC) | MIC ([2]; Klebsiella pneumoniae, BAA1705, microbroth dilution, incubated overnight at 37 °C, growth not visible to eyes, performed in triplicate, read-out: MIC) | MIC (MRSA (LAC Clone); Staphylococcus aureus, MRSA, microbroth dilution, incubated overnight at 37 °C, growth not visible to eyes, performed in triplicate, read-out: MIC) | MIC (E. coli (ATCC 25922); ATCC 25922) | MIC ([1]; ATCC 27883) | MIC ([2]; ATCC BAA 1705) | MIC (MRSA (LAC Clone); LAC Clone) | cell viability (MDA-MB-231 cells; 25 µM) | cell viability (MDA-MB-231 cells; 30 µM) | MIC (range over MRSA, K. pneumoniae, P. aeruginosa, E. coli) [3]
C[C@@H](O)[C@H]1C(=O)N2C(C(=O)O)=C(S[C@@H]3CN[C@H](C(=O)N(C)C)C3)[C@H](C)[C@H]12 [Meropenem] | 8 µg/mL (≈ 20.9 µM) | 1 µg/mL (≈ 2.61 µM) | 32 µg/mL (≈ 83.4 µM) | 4 µg/mL (≈ 10.4 µM) | – | – | – | – | – | – | –
N=C(N)NCCC[C@@H]1NC(=O)[C@H](Cc2c[nH]c3ccccc23)NC(=O)[C@H](CCCNC(=N)N)NC(=O)[C@H](Cc2c[nH]c3ccccc23)NC(=O)[C@H](CCCCNC(=O)CCC(=O)NCCCC[C@@H]2NC(=O)[C@H](CCCNC(=N)N)NC(=O)[C@H](Cc3c[nH]c4ccccc34)NC(=O)[C@H](CCCNC(=N)N)NC(=O)[C@H](Cc3c[nH]c4ccccc34)NC(=O)[C@H](CCCNC(=N)N)NC(=O)[C@H](Cc3c[nH]c4ccccc34)NC(=O)[C@H](CCCNC(=N)N)NC(=O)[C@H](Cc3c[nH]c4ccccc34)NC2=O)NC(=O)[C@H](CCCNC(=N)N)NC(=O)[C@H](Cc2c[nH]c3ccccc23)NC(=O)[C@H](CCCNC(=N)N)NC(=O)[C@H](Cc2c[nH]c3ccccc23)NC(=O)[C@H](CCCCNC(=O)CCC(=O)NCCCC[C@@H]2NC(=O)[C@H](CCCNC(=N)N)NC(=O)[C@H](Cc3c[nH]c4ccccc34)NC(=O)[C@H](CCCNC(=N)N)NC(=O)[C@H](Cc3c[nH]c4ccccc34)NC(=O)[C@H](CCCNC(=N)N)NC(=O)[C@H](Cc3c[nH]c4ccccc34)NC(=O)[C@H](CCCNC(=N)N)NC(=O)[C@H](Cc3c[nH]c4ccccc34)NC2=O)NC1=O [Tricyclic peptide 20] (I: cyclo(KWRWRKWRWR) / II: cyclo(KWRWRWRWR) / III: cyclo(KWRWRWRWR); linker I:1-III:1, I:6-II:1 via Suc) | – | – | – | – | 64 µg/mL (≈ 13.4 µM) | 128 µg/mL (≈ 26.7 µM) | 128 µg/mL (≈ 26.7 µM) | 64 µg/mL (≈ 13.4 µM) | more than 97% | 92% | 64 to 128 µg/mL
N=C(N)NCCC[C@@H]1NC(=O)[C@H](CCCNC(=N)N)NC(=O)[C@H](CCCNC(=N)N)NC(=O)[C@H](Cc2c[nH]c3ccccc23)NC(=O)[C@H](Cc2c[nH]c3ccccc23)NC(=O)[C@H](Cc2c[nH]c3ccccc23)NC(=O)[C@H](Cc2c[nH]c3ccccc23)NC(=O)[C@H](CCCNC(=N)N)NC1=O [c[R4W4]] (cyclo(RRRRWWWW)) | – | – | – | – | 16 µg/mL (≈ 11.7 µM) | 64 µg/mL (≈ 46.7 µM) | 32 µg/mL (≈ 23.4 µM) | 4 µg/mL (≈ 2.92 µM) | – | – | –
